Entries after “also recorded” stand apart in the source; their conditions may differ. Like-named read-outs stand apart in the source and are kept apart here.

The source of these data is US20230355678A1, “METHODS FOR IMPROVING T CELL EFFICACY” (IMMATICS US, INC., priority 2022, published 2023).

Data set [1] concerns transduced T cells. The data set is described as follows: Memory T cell phenotype by flow cytometry. It counts as cell-based. As to conditions: for CD28+CD62L+ cells (Tcm-like cells): FIG. 5; for % Tnaïve cells / TemRA cells: vs other treatments and control (no HDACi), FIG. 4. On the procedure: Phenotypes of transduced T cells treated with different HDACi were determined by flow cytometry gated on CD3+CD8+ TCR+ cells. […] No major difference in immune-checkpoint-inhibitor (ICI) marker expression was observed.
Using Panobinostat as example, phenotypes of T cell products prepared by Panobinostat treatment on Day 0 (activation), Day 1 (transduction), or Day 2 (feeding) were determined.
(§1) On Day 1, the activated CD4/CD8-selected cells were transduced with Lentiviral vectors expressing a target-specific exogenous TCR. On Day 2, the culture media were removed and the transduced cells were fed with fresh media in the absence of Panobinostat, SAHA+IL-21, and AKTi VIII and in the presence of cytokines, for cell expansion. On Day 7-Day 10, cells were harvested and cryopreserved for harvest metrics, phenotypic analysis, and functional studies including Incucyte tumor serial killing assay, cytokine production, and exhaustion analysis. To test the effects of TKi, e.g., dasatinib, on T cell products, dasatinib was added on Day 2 (5 nM) and Day 5 (10 nM) during feeding and expansion.
(§2) On Day 0, thawed and rested CD4/CD8-selected cells were activated in the presence of anti-CD3/anti-CD28 antibodies. On Day 1, the activated CD4/CD8-selected cells were transduced with Lentiviral vectors expressing a target-specific exogenous TCR and exogenous CD8 molecules. On Day 2, the culture media were removed and the transduced cells were fed with fresh media containing cytokines for cell expansion. Dasatinib was added on Day 2 or on Day 5. On Day 7-Day 10, cells were harvested and cryopreserved for harvest metrics, phenotypic analysis, and functional studies including Incucyte tumor serial killing assay, cytokine production, and exhaustion analysis.

In data set [2] the test system is transduced T cells. The data set is described as follows: Viability of T cell products. Further details: viability of transduced T cells: dose or concentration left out as unconfirmed. As to conditions: for viability of transduced T cells: Day 7, vs controls (no HDACi and DMSO), FIG. 2A. Here is the method:
(§3) (DMSO low concentration=low volume=0.00001%; vehicle control for Panobinostat at low concentration (1 nM); DMSO high concentration=high volume=1.5%; vehicle control for valproic acid at high concentration (1.5 mM); all except Na butyrate (water) were dissolved in DMSO)

Data set [3] has as its system transduced T cells. The data set is described as follows: Fold expansion and manufacturing metrics of T cell products. Further details: fold expansion: unit of the concentration uncertain. As to conditions: for fold expansion: FIG. 2B; for fold expansion of T cell products: vs untreated control. In kind it is cell-based. On the procedure:
as §3, §1, §2

The test system of data set [4] is transduced T cells. The data set is described as follows: Transduction efficiency by flow cytometry gated on CD3+CD8+ TCR+ cells. As to conditions: for % CD8+ T cells / % CD8+ TCR+ cells (transduction efficiency): FIG. 3; for % CD8+ TCR+ T cells (transduction efficiency) / total number of T cell products with CD8+ TCR+ T cells: vs untreated control. In kind it is cell-based. Further details: % CD8+ T cells / % CD8+ TCR+ cells (transduction efficiency): unit of the concentration uncertain. On the procedure:
Transduction efficiency of transduced T cells treated with different HDACi were determined by flow cytometry gated on CD3+CD8+ TCR+ cells.
as §1, §2
On the technique in general: Flow cytometry measures light scatter and fluorescence of single cells or particles in a stream.

Data set [5] concerns transduced T cells. The data set is described as follows: Exhaustion / inhibitory receptor (ICI) marker expression of T cell products. It counts as cell-based. Here is the method:
The sustained expression of multiple inhibitory receptors may be the hallmark of exhausted T cells. Common to both CD4+ and CD8+ exhausted T cells may be the surface expression of multiple inhibitory receptors, e.g., 2B4, 4-1BB, CD39, CD69, LAG3, PD-1, TIGIT, and TIM3. Expression of these inhibitory receptors in T cell products prepared by Panobinostat treatment at different time was determined. […] Panobinostat treatment on Day 0 increased % PD-1+ cells in T cell products as compared with other treatments and control.
CD39 may be considered as a marker for exhausted T cells, e.g., CD8+ T cells, in cancer. CD69 is a membrane-bound, type II C-lectin receptor and may be considered as an early marker of lymphocyte activation due to its rapid appearance on the surface of the plasma membrane after stimulation. […] Dasatinib may have little effect on % of terminally differentiated CD39-positive state (CD39+CD69+) and % of CD69+ state in T cell products.
Common to both CD4+ and CD8+ exhausted T cells may be the surface expression of multiple inhibitory receptors including 2B4, 4-1BB, CD39, CD69, LAG3, PD-1, TIGIT, and TIM-3.

The test system of data set [6] is UACC257. The data set is described as follows: Tumor cell killing by T cell products (Incucyte tumor serial killing assay). It counts as cell-based. As to conditions: expansion in the presence of dasatinib; TCR normalized T cells:UACC257-RFP=3:1; n=3 healthy donors; vs Panobinostat or AKTi VIII and controls; FIG. 28A, 29A-C.
Text: as §1
T cell products prepared by activating T cells obtained from three patients (n=3) in the presence of Panobinostat, SAHA+IL-21, or AKTi VIII were compared with regards to tumor killing activity when contacting target cells, e.g., UACC257, which express a report gene encoding red florescent protein (RFP), with E:T=3:1. TCR-positive cells were normalized.
(n=3 healthy donors; TCR normalized T cells:UACC257-iRFP=3:1).

The mark [7] stands for this setting: dasatinib (10 nM) on Day 2 or Day 5, vs untreated control, FIG. 23C.
The mark [8] stands for this setting: dasatinib (5 nM) on Day 2 compared with dasatinib (10 nM) on Day 5, FIG. 25A.
Setting [9] is: dasatinib (10 nM) on Day 2 or Day 5, FIG. 23B.
[10] abbreviates: dasatinib added Day 2 (5 nM) and Day 5 (10 nM) during feeding and expansion, vs untreated control, FIG. 25A.

Consider `O=C(CCCCCCNC(=O)c1cnc(N(c2ccccc2)c2ccccc2Cl)nc1)NO` [ACY-241], for which, in data set [1] (100 nM), the “CD28+CD62L+ cells (Tcm-like cells)” value is “more CD28+CD62L+ cells; also recorded: increased”, the “% Tnaïve cells” value is given as “most % Tnaïve cells; also recorded: most naïve cells” and the TemRA cells entry is on record as “least TemRA cells”.

Turning to `CCCC(CCC)C(=O)O` [valproic acid], the “toxicity to T cells” value in data set [2] is recorded as “highly toxic”. Further, the fold expansion result in data set [3] (1.5 (unit uncertain)) is listed as “reduced fold expansion”. Also, the “% CD8+ T cells” value in data set [4] (1.5 (unit uncertain)) is listed as “reduced % CD8+ T cells”.

Turning to `CCCC(=O)[O-].[Na+]` [Sodium butyrate], in data set [2], the “viability of transduced T cells” value was “reduced T cell viability”. In data set [2] (summary of Example 2), the “toxicity to T cells” value is on record as “highly toxic”. Further, the fold expansion result in data set [3] (2 (unit uncertain)) is “reduced fold expansion”. In data set [4] (2 (unit uncertain)), the “% CD8+ T cells” value is listed as “reduced % CD8+ T cells” and the “% CD8+ TCR+ cells (transduction efficiency)” value is “reduced % CD8+ TCR+ cells”.

With `Nc1ccccc1NC(=O)c1ccc(CNC(=O)OCc2cccnc2)cc1` [Entinostat, entinostat], in data set [2], the “toxicity to T cells” value was “highly toxic” and the “viability of transduced T cells” value was “reduced T cell viability”. Besides, the fold expansion entry in data set [3] (2 (unit uncertain)) is recorded as “reduced fold expansion”. Also, in data set [4] (2 (unit uncertain)), the “% CD8+ T cells” value is “reduced % CD8+ T cells” and the “% CD8+ TCR+ cells (transduction efficiency)” value was “reduced % CD8+ TCR+ cells”.

On to `Cc1nc(Nc2ncc(C(=O)Nc3c(C)cccc3Cl)s2)cc(N2CCN(CCO)CC2)n1` [Dasatinib, dasatinib], for which the “% 2B4+, % Cd69+, and % TIM-3+ cells in T cell products” value in data set [5] (dasatinib (10 nM) on Day 2 or Day 5, vs Panobinostat or AKTi VIII or untreated control, FIG. 27A) is on record as “decreased”. In data set [5] (dasatinib (10 nM) on Day 2 or Day 5, vs Panobinostat or AKTi VIII or untreated control, FIG. 27B), the “MFI of 4-1BB and TIM-3 in T cell products” value was “decreased”. Moreover, the “% of T cell products with differentiated CD39+ state (CD39+)” value in data set [5] (setting [7]) is “slightly higher”. Further, the “% of T cell products with memory-progenitor CD39− negative stem-like phenotype (CD39−CD69−)” value in data set [5] (setting [7]) is “slightly less”. The “% of terminally differentiated CD39-positive state (CD39+CD69+) and % of CD69+ state” value in data set [5] (dasatinib, FIG. 23C) is “little effect”. In addition, in data set [3] (Acceptable range ≥Control, Table 5 summary grade), the “Manufacturing metrics (expansion, viability, yield)” value is listed as “=”. Besides, the “fold expansion of T cell products” value in data set [3] (dasatinib added Day 2 (5 nM) and Day 5 (10 nM) during feeding and expansion, FIG. 24A) is on record as “little effect”; in data set [3] (dasatinib on Day 2 (10 nM or 100 nM) or Day 5 (10 nM or 100 nM), FIG. 22A) it was “little effect”. Also, the “% CD8+ TCR+ T cells (transduction efficiency)” value is given as “higher” in data set [4] (dasatinib added Day 2 (5 nM) and Day 5 (10 nM) during feeding and expansion, FIG. 24B); “higher” in data set [4] (dasatinib on Day 2 (10 nM or 100 nM) or Day 5 (10 nM or 100 nM), FIG. 22B). The “total number of T cell products with CD8+ TCR+ T cells” value in data set [4] (dasatinib added Day 2 (5 nM) and Day 5 (10 nM) during feeding and expansion, FIG. 24C) is given as “little effect”; in data set [4] (expansion in the presence of dasatinib, FIG. 22C), “little effect”. For the same compound, the phenotype entry in data set [1] (Dasatinib-treated cells vs untreated cells) is “Better Phenotype”. In data set [1] (comparative study, FIG. 25A-B), the “Ranking of T cell products from the most Tnaive and the least TemRA to the least Tnaive and the most TemRA” value is “dasatinib (5 nM) on Day 2 >dasatinib (10 nM) on Day 5 >AKTi VIII >Panobinostat”. Besides, the “% TemRA in T cell products” value was “less” in data set [1] (setting [8]) and “decreased” in data set [1] (setting [10]). Further, the “% Tnaive in T cell products” value is “more” in data set [1] (setting [8]), “less” in data set [1] (setting [9]) and “increased” in data set [1] (setting [10]). Besides, the “expression of CD27” value in data set [1] (dasatinib (10 nM) on Day 2 or Day 5, FIG. 23A) is “Little effect”. Besides, the “% of differentiated TemRA” value in data set [1] (setting [9]) is listed as “less”. For the same compound, the “% CD62L+ and % CD28+CD62L+ cells in T cell products” value in data set [1] (dasatinib (10 nM) on Day 2 or Day 5, vs Panobinostat, SAHA+IL-21, AKTi VIII or untreated control, FIG. 26A) was “increased”. In data set [1] (dasatinib (10 nM) on Day 2 or Day 5, vs Panobinostat, SAHA+IL-21, AKTi VIII or untreated control, FIG. 26B), the “MFI of CD27 and CD62L in T cell products” value is given as “increased”. The “expression of Tnaive and Tcm markers CD28 and CD62L” value in data set [1] (dasatinib (10 nM) on Day 2 or Day 5, vs untreated control, FIG. 23A) is on record as “increased”. Moreover, the “number of Tnaive in T cell products” value in data set [1] (dasatinib added Day 2 (5 nM) and Day 5 (10 nM) during feeding and expansion, vs untreated control, FIG. 25B) is given as “increased”. In addition, the tumor killing activity result in data set [6] is “significantly better tumor killing activity”.

As to `O=C(CCCCCCC(=O)Nc1ccccc1)NO` [SAHA, suberanilohydroxamic acid], in data set [1] (50 nM), the “CD28+CD62L+ cells (Tcm-like cells)” value was “more CD28+CD62L+ cells; also recorded: increased”, the “% Tnaïve cells” value was “most % Tnaïve cells; also recorded: most naïve cells” and the TemRA cells entry was “least TemRA cells”.
